Patent US20130317092A1 (priority 2007, published 2013)
“Also recorded” adds a separate entry of the source.

What was measured:
AChE-R mRNA = AChE-R mRNA level (RT-PCR, fluorescent in situ hybridization) in Meg-01 cells; assay type: cell-based, human; conditions: for AChE-R mRNA level on co-administration with Thapsi: Thapsi 10 nM plus oligo 100 nM; for AChE-R mRNA level by FISH (population distribution): agent alone
AChE-S mRNA = AChE-S mRNA level (fluorescent in situ hybridization) in Meg-01 cells; assay type: cell-based, human; conditions: for AChE-S mRNA level on co-administration with Thapsi: Thapsi 10 nM plus oligo 100 nM; for AChE-S mRNA level by FISH: agent alone
Meg-01 cells [1] = assay: DNA fragmentation by TUNEL assay in Meg-01 cells; assay type: cell-based, human
Meg-01 cells [2] = assay: Adhesion assay of MEG-01 cells; assay type: cell-based, human; conditions: 72 hours
c-Myc = c-Myc immunohistochemistry in Meg-01 cells; assay type: cell-based, human
ASF/SF2 [3] = assay: Splice factor ASF/SF2 in Meg-01 cells; assay type: cell-based, human; conditions: data not shown
[4] = tested on: Murine macrophage RAW 264.7 cells; assay: Nitric oxide production (nitrite, Griess) by RAW 264.7 macrophages; assay type: cell-based
Experimental: Murine macrophage RAW 264.7 cells were cultured in 48 well plates (50×10^3 cells per well). The production of NO by these macrophages was examined following various stimuli (6 repetitions for each treatment) at three time intervals (6, 12 and 24 hours) as depicted in FIGS. 27a, 27b and 27c.
Mouse RAW cells, human U937 cells and primary human macrophages were treated for 24 h with 1 μM CpG oligonucleotides or 1 μg/ml bacterial lipopolysaccharide added to standard growth medium
Interleukin 6 expression was assayed by QRT-PCR, nitric oxide was measured by Griess assay and prostaglandin E2 levels were measured by R&D ELISA kit according to manufacturer's instructions.

AChmiRNA [5] = tested on: AChmiRNA; set-up: species or system mice; conditions: mouse
AChmiRNA [6] = assay: AChmiRNA expression in human PBMC (quantitative RT-PCR); assay type: cell-based
TBP = TBP transcript in human PBMC (real-time RT-PCR); assay type: cell-based
BDP1 = BDP1 transcript in human PBMC (real-time RT-PCR); assay type: cell-based
ASF/SF2 [7] = assay: Splicing factor ASF/SF2 in human PBMC (real-time RT-PCR); assay type: cell-based
macrophage miRNAs = assay: Spotted microarray miRNA profile of primary human macrophages; assay type: cell-based
Description: Macrophages were isolated from buffy coats from healthy donors, underwent pooling that elicited mixed leukocyte response (MLR) and subjected in vitro to several distinct agents or combinations thereof, some known to elicit macrophage activation (listed in Table 2, hereinbelow).
The mirVana (Ambion, Austin, Tex.) oligonucleotide set was used to construct the in-house array. The microarray carried 200 spotted probes complementary to known human and mouse miRNAs. To compose the array, the mirVana probeset was dissolved in 3×SSC to a final concentration of […], and printed on Ultragaps slides (Corning, Corning, N.Y.), using the MicroGrid spotter (Genomic Solutions, Holliston, Mass.). The array layout contained 12 subgrids, each composed of 11 rows and 12 columns. Each oligonucleotide was spotted 6 times on the array. The experiments were designed for comparison of two samples. Data was therefore always relative rather than absolute. In these experiments, a “reference design” (Churchill, 2002, Nature genetics, 32, 490-495) was used, in which RNA from cells or tissues is compared. In addition, dye-swapping tests were performed, aimed to exclude dye-specific labeling differences (Dombkowski et al., 2004, FEBS Lett, 560, 120-124). Labeling was performed using the CyDye reactive dye pack (Amersham, NSW, Australia), as instructed. Pre-hybridization was in pre-heated S×SSC, 1% BSA, 0.1% SDS solution, at 42° C. for 45 min. Cy3 and Cy5-labeled fragmented RNA (3 ug each) were added to the hybridization solution (3×SSC, 0.1% SDS, 10 μg polyA, 20 μg tRNA), heated at 95° C. for 4 minutes for eliminating secondary structures and applied to the slides in hybridization chambers (Corning, N.Y., USA) for 15 h at 64° C. Hybridized slides were successively washed in: 1×SSC, 0.1% SDS (5 min); 0.1×SSC, 0.1% SDS (5 min) and 0.1×SSC (3×1.5 min) and were dried by centrifugation (˜1000 g).
This was adapted from (Ben-Ari S, et al., J. Neurochem. 2006 April; 97 Suppl 1:24-34.) Briefly, an Affymetrix 428 Array Scanner was used at the maximum gain setting, at the wavelengths of 532 nm and 650 nm Scans were controlled by the “Jaguar” software (Affymetrix, Calif., USA), saved as TIFF files and exported to the “Imagene” program (Biodiscovery Inc, CA, USA) to define the spots, convert the intensity signals into numbers and calculate quality parameters such as “shape regularity”, “empty spot” etc. Data normalization, exclusion of unreliable spots and combining the information from all 4 slides were performed in an in-house Matlab program. First, median background was subtracted from the median signal intensity, to normalize background noises. Background area was defined as a circle of 5 pixels diameter separated from the signal area by 4 pixels. […]. Spot quality was examined according to pre-defined Imagene's parameters, standard deviation of pixels intensity in each spot etc. Spots with intensities below the threshold derived from the negative control spots or with saturated pixel values were excluded. The Cy3 and Cy5 signal intensities of each spot were normalized to the mean Cy3 and Cy5 intensities in the slide. For each spot, an initial Cy3/Cy5 ratio has been calculated, and was transformed to a log 2 basis. This value was designated LR (log 2 ratio). […]. Then, results from all valid spots (up to 6) representing the same oligonucleotide were combined. Probes with less than 3 valid spots were excluded, and median and mean LR were calculated.
Covariance between treatments was calculated in OpenOffice 1.1 for Mac OS X, using the entire miRNA collection represented on the chip (for signals that failed the MatLab analysis, a Median LR value of 0 was assigned).
The mirVana oligo set (Ambion, Austin, Tex.; Catalog number 1564V1) was used to construct our in-house array with >200 spotted probes complementary to known human and mouse miRs. […]

CD54 and CD40 = conditions: cited from earlier work
miRNA181a = assay: Northern blot of miRNA181a in Meg-01 cells; assay type: cell-based, human; conditions: in the presence or absence of Thapsi and/or AChmiON
Experimental: Cultured Meg-01 cells were co-incubated with thapsigargin (10 nM) and synthetic AChmiON (miR-181) (SEQ ID NO:23; at 100 nM) or anti-miR-181 (SEQ ID NO:24 (modified, identical in sequence to SEQ ID NO:2); at 100 nM.

AChmiRNA (miRNA-181a) = AChmiRNA (miRNA-181a) level by real-time RT-PCR in Meg-01 cells; assay type: cell-based, human
Meg-01 cells [8] = assay: Scanning electron microscopy of Meg-01 cell surface (megakaryocytic maturation); assay type: cell-based, human; conditions: 24 hour treatment
Meg-01 cells [9] = assay: Ploidy / DNA content of Meg-01 cells by FACS and propidium iodide; assay type: cell-based, human; conditions: 72 hours
Meg-01 cells [10] = assay: Nuclear area measurement of Meg-01 cells; assay type: cell-based, human; conditions: 24 hours
AChE-R = AChE-R protein immunocytochemistry in Meg-01 cells; assay type: cell-based, human; conditions: 24 hours
AChE-S = AChE-S protein immunocytochemistry in Meg-01 cells; assay type: cell-based, human; conditions: 24 hours
activated caspase-3 = assay: Activated caspase-3 immunostaining in Meg-01 cells; assay type: cell-based, human; conditions: 24 hours, agent alone
activated caspase-9 = assay: Activated caspase-9 immunostaining in Meg-01 cells; assay type: cell-based, human
Bcl-2 = Bcl-2 immunostaining in Meg-01 cells; assay type: cell-based, human
PKCβII = PKCβII immunocytochemistry in Meg-01 cells; assay type: cell-based, human; conditions: 24 hours
AChE = AChE catalytic activity (Ellman) in RAW 264.7 cells; assay type: cell-based, murine

## AChmiON: fully 2′-O-methylated oligonucleotide with the sequence of human/murine miRNA-181a (modified SEQ ID NO:23; unmodified SEQ ID NO:1) (AACAUUCAACGCUGUCGGUGAGU; all 2'-O-methyl, backbone not given here)
AChE-R mRNA
  AChE-R mRNA level on co-administration with Thapsi: inhibiting the increase in AChE-R mRNA level
  AChE-R mRNA level by FISH (population distribution): levels remained unchanged
AChE-S mRNA
  AChE-S mRNA level on co-administration with Thapsi: keeping AChE-S mRNA level above control values
  AChE-S mRNA level by FISH: increased the fraction of cells with high AChE-S levels
Meg-01 cells [1]
  DNA fragmentation / cell death (TUNEL): increased incidence of positive cells; also recorded: significantly increased apoptosis
Meg-01 cells [2]
  cell adhesion: suppressed this effect
c-Myc; Thapsi plus AChmiON
  Thapsi-induced c-myc increase on co-treatment: could not prevent the c-myc increase induced by Thapsi
ASF/SF2 [3]; Thapsi plus AChmiON
  Thapsi-induced ASF/SF2 on co-treatment: suppressed part of this effect
[4]; RAW 264.7, 6, 12 and 24 hours
  speed of the NO response: slower than the response to LPS or IFN-γ
[4]; RAW 264.7, 24 hour post-treatment, AChmiON 100 nM
  maximal NO effect relative to the LPS effect: about 80%
[4]; RAW 264.7, 24 hours, LPS 1 μg/ml, IFN-γ 4 ng/ml, oligos 100 nM
  Nitrite concentration reflecting NO production: 38 µM
[4]; RAW 264.7 macrophages
  NO production versus control (in words): significantly up-regulated NO production

## CN1CC=C(c2ccccc2)CC1 [MPTP, 1-Methyl-4-phenyl-1,2,3,6-tetrahydropyridine]
AChmiRNA [5]
  AChmiRNA levels in vivo: decreases of AChmiRNA levels

## CpG ODN 2006
AChmiRNA [6]
  AChmiRNA expression: suppressed
TBP
  TBP transcript: suppressed
BDP1
  BDP1 transcript: suppressed
ASF/SF2 [7]
  splicing factor ASF/SF2 levels: reduced levels
Macrophage miRNAs
  similarity of effects on the miRNA profile (covariance): invoke the closest effects on the miRNA profile
Macrophage miRNAs; 24 h, 1 μg/ml LPS or ODN 2006 1 uM
  miR-132 expression (spotted microarray): consistently being up-regulated
Macrophage miRNAs; LPS 1 μg/ml, CpG 1 μM, EN101 1 μM
  extent of change in miRNA expression (miRNAs beyond median LR=0.25): caused the greatest change
Macrophage miRNAs; spotted array
  miR-17-5p expression: down-regulated by CpG alone
  miR-30a-3p and miR-372 expression: consistently down-regulated
  miRNAs down-regulated: miR-9-1*, 26a-1, 27a, 33, 93, 140, 145, 185, 221, and 298
  miRNAs up-regulated: miR-183, 292-3p, 302c, 361, and 381
CD54 and CD40
  expression of CD54 and CD40: enhanced expression of CD54 and CD40

## anti-AChmiRNA: antisense oligonucleotide complementary to AChmiRNA (SEQ ID NO:2; modified SEQ ID NO:24) (ACUCACCGACAGCGUUGAAUGUU; modified, pattern not given here)
AChE-R mRNA
  AChE-R mRNA level on co-administration with Thapsi: maintaining the increase in AChE-R mRNA
AChE-S mRNA
  AChE-S mRNA level on co-administration with Thapsi: prevented the Thapsigargin-induced suppression of AChE-S mRNA
Meg-01 cells [1]
  DNA fragmentation / cell death (TUNEL): normal level of TUNEL staining
miRNA181a
  level of AChmiRNA (miRNA181a) by Northern blot: decreased the level of anti-AChmiRNA
miRNA181a; listed as anti-miR181
  level of AChmiRNA (miRNA181a) by Northern blot: reducing the level of miRNA181a in the presence or absence of Thapsi and/or AChmiON

## C/C=C(/C)C(=O)O[C@H]1C(C)=C2[C@H]([C@@H]1OC(=O)CCCCCCC)[C@@](C)(OC(C)=O)C[C@H](OC(=O)CCC)[C@@]1(O)[C@H]2OC(=O)[C@@]1(C)O [Thapsi, Thapsigargin]
AChmiRNA (miRNA-181a); Meg-01 cells treated for 24 hours, agent alone
  level of AChmiRNA: induced a decrease in AChmiRNA
AChmiRNA (miRNA-181a); Meg-01 cells, Thapsi treatment (ER-calcium release), real-time RT-PCR
  decrease in the levels of AChmiRNA: 50%
Meg-01 cells [8]
  cell surface morphology (scanning electron microscopy): a very early stage in the formation of demarcation membranes
Meg-01 cells [9]
  ploidy (DNA content): a bigger fraction of cells became polyploid
Meg-01 cells [10]
  nuclear area / nuclei size: increase in the nuclear area
AChE-R mRNA; 24 hours
  AChE-R mRNA level (RT-PCR): increasing the levels of AChE-R mRNA variant
AChE-R mRNA
  AChE-R mRNA level by FISH (population distribution): rightward shift in the population distribution of labeling intensity; also recorded: increase in AChE-R mRNA level
AChE-S mRNA
  AChE-S mRNA level by FISH: decrease in AChE-S mRNA level
AChE-R
  AChE-R protein level (immunohistochemistry): increase also in the protein level
AChE-S
  expression of the AChE-S variant (immunohistochemistry): decrease of expression of the AChE-S variant
Activated caspase-3
  incidence of activated caspase-3 positive cells: increase in the incidence of activated caspase-3 positive cells
Activated caspase-9
  incidence of activated caspase-9 positive cells: increased the incidence of positive cells for activated caspase-9 immunostaining
Bcl-2
  immunoreactivity of Bcl-2: decrease in the immunoreactivity of Bcl-2
Meg-01 cells [1]
  DNA fragmentation / cell death (TUNEL): no significant changes
Meg-01 cells [2]
  cell adhesion: increased adhesion of treated cells
c-Myc; agent alone
  c-myc expression: c-myc increase induced by Thapsi
ASF/SF2 [3]
  splice factor ASF/SF2: induced
PKCβII
  staining intensity for PKCβ: increased staining intensity for PKCβ

## C=CC[N+](C)(C)c1ccc(CCC(=O)CCc2ccc([N+](C)(C)CC=C)cc2)cc1.[Br-].[Br-] [BW284c51, 1,5-Bis(4-allyldimethylammoniumphenyl)pentan-3-one dibromide]
AChE; RAW 264.7 cells, 24 hr, LPS 1 μg/ml, BW 284 C51 10 μM (Example 13)
  AChE activity: reduced AChE activity
AChE; macrophages (RAW 264.7), 1 micromolar BW284c51, 100 nanomolar CpG 1826
  AChE activity: decrease
